Laboratory results published in PMC4947679, “Quantitative In Vitro and In Vivo Evaluation of Intestinal and Blood-Brain Barrier Transport Kinetics of the Plant N-Alkylamide Pellitorine” (BioMed Research International, 2016).
Where two headings read alike, the source gives them in different places.

Assays:
[1] = Capillary depletion experiment in mice; type: in vivo, ICR-CD-1 mice; details: 10 min after intravenous injection; for Kp at 10 min: female, ICR-CD-1, mouse, 36 μg/mouse
Description: A capillary depletion experiment was performed to distinguish the transport of pellitorine into the brain, represented by the parenchyma, and part of pellitorine which is trapped by the endothelial cells of the brain, represented by the capillaries. A method of Triguero et al. was used, which was modified by Gutierrez et al.. The mice were anesthetized intraperitoneally with 40% (w/V) urethane solution (3 g/kg). Thereafter, 20 μL of the 1.8 mg/mL pellitorine dose solution was injected into the jugular vein. Ten min after injection, blood was collected from the abdominal aorta and serum was obtained by centrifuging the blood at 10 000 ×g during 15 min at 21°C. Then, after removing the skin of the mice's chest, the aorta is clamped, the jugular veins are severed, and the brain is immediately perfused manually with 20 mL of Lactated Ringer's solution. The mice are decapitated, and the brains are isolated, weighed, and put into tubes (LoBind Eppendorf), to which 525 μL ice-cold capillary buffer (10 mM HEPES, 141 mM NaCl, 4 mM KCl, 2.8 mM CaCl2, 1 mM MgSO4, 1 mM NaH2PO4, and 10 mM D-glucose adjusted to pH 7.4) was added. The tubes (LoBind Eppendorf) were homogenized. Next, 1000 μL of 26% ice-cold dextran solution in capillary buffer was added and vortexed and the tubes were subsequently centrifuged at 20 000 ×g for 60 min at 4°C. Parenchyma and fat tissue (supernatant) were transferred into separate tubes (LoBind Eppendorf) and weighed. The capillaries (pellet) were kept in the original tube. The sample preparation of the pellet and the supernatant is the same sample preparation method as used for the mice brains and mice serum, respectively, as described in Section 2.6.
The distribution in the brains was calculated as follows: (5) Fraction%=Mtissue/Mcapillaries+Mparenchyma×100 in which M tissue is the amount of pellitorine in the capillaries and parenchyma, M capillaries the amount of pellitorine in the capillaries, and M parenchyma the amount of pellitorine in the parenchyma. The capillary depletion experiment was performed in duplicate and mean values are reported.

[2] = Caco-2 cell permeability assay; type: in vitro ADME, human; details: human, Caco-2
Description: (§1) The Caco-2 cell line originated from a human colorectal carcinoma and was maintained in Dulbecco's modified Eagle's medium (DMEM) (95% humidity, 37°C, 5% CO2), supplemented with 10% (V/V) fetal bovine serum, 100 U/mL penicillin and 100 μg/mL streptomycin, 2 mM L-glutamine, and 1% nonessential amino acids (all from Invitrogen/GIBCO, Ghent, Belgium).
(§2) The Caco-2 cell intestinal model was used to investigate the gut mucosa permeation of pellitorine. On each Transwell (Corning Costar, New York, USA) membrane insert filter (0.4 μm pore size, 12 mm filter diameter), the cells were seeded at a density of 2.6 · 10^5 cells/cm^2 cells and cultivated in the described supplemented DMEM. Every second day, the medium was changed. During a period of 21–29 days, the cells were grown and differentiated until monolayers were formed. The integrity of the monolayers was checked via the measurement of transepithelial electrical resistance (TEER) of the monolayers with a Millicell-ERS system (Millipore Corp., Bedford, MA, USA) before and after the transport experiments. The experiments were performed in duplicate for each dose solution. Transport experiments were carried out according to Hubatsch et al. in two directions: from the apical-to-basolateral (ab) direction and from the basolateral-to-apical (ba) direction in Hanks' Balanced Salt solution. Two dose solutions of pellitorine (in Anacyclus pyrethrum extract) of 1 μg/mL in 0.5% EtOH (further indicated as DS1) and of 56 μg/mL in 0.5% of a mixture of vitamin E-TPGS (33.3%), EtOH (11.1%), PEG 400 (33.3%), and PG (22.2%) (further indicated as DS2) dissolved in HBSS were tested.
(§3) Final apical volumes of 0.4 mL and basolateral volumes of 1.2 mL were used for 12 mm filter supports during the transport experiment. After 15, 30, 60, 90, and 120 min, samples were taken from the receiver compartment (basolateral to apical transport: 100 μL, apical-to-basolateral transport: 300 μL) and immediately replaced by fresh HBSS. […] Pellitorine was quantified using a ultraperformance liquid chromatography-tandem mass spectrometry (UPLC-MS^2) method as described below.
(§4) The apparent permeability coefficient (P app in cm/s) of pellitorine in DS2 was calculated using a sink condition equation, while P app of pellitorine in DS1 was calculated using a nonsink equation. From Fick's first law, J = −D × [dC(x)]/dx (J is the flux or transfer rate along the donor-to-receptor side, D is the diffusion coefficient, x is the distance from the donor compartment, and C(x) is the concentration in the barrier at the coordinate x in the barrier), the following differential equation is derived: dM r(t)/dt = P app × A × [C d(t) − C r(t)], in which P app is the apparent permeability coefficient (a product of distribution coefficient with diffusion coefficient divided by the barrier thickness), M r is the amount of substance in the receiver chamber, A is the cross-sectional area of the barrier, C d is the donor concentration, and C r is the receiver concentration. This differential equation can be solved to calculate P app using different initial conditions depending on sink or nonsink conditions. In case of sink conditions, the following equation was obtained from the amount of compound transported per time dM r(t)/dt with the receiver concentration set to zero [18, 20]:(1) Mrt/Cd,0=Papp×A×t+c, where P app is the apparent permeability coefficient (cm/s), A is the surface area of the filter (1.12 cm^2), C d,0 is the initial concentration in the donor chamber (μg/mL), t is the time (s), and c is a constant term which vanishes, since M r is initially zero at t = 0.
(§5) The donor concentration at each time point was calculated by taking into account the amount of compound which already permeated through the cell monolayer during that time interval. In this way, the reduction in donor concentration after every sampling was also taken into account.

Caco-2 cell monolayer = test: Caco-2 cell permeability assay; type: in vitro ADME, human
Description: as §1, §2, §3, §4, §5

[3] = design: method as in PMID 25481393; details: cited from earlier work
[4] = apical-to-basolateral, DS1, after 120 min
[5] = apical-to-basolateral, DS2, after 120 min
[6] = basolateral-to-apical, DS1, after 120 min
[7] = basolateral-to-apical, DS2, after 120 min

CCCCC/C=C/C=C/C(=O)NCC(C)C [pellitorine, deca-2E,4E-dienoic acid isobutylamide]
fraction in brain capillaries ([1]; mean of duplicate): 3%
fraction in brain parenchyma ([1]; mean of duplicate): 97%
Kp at 10 min ([1]; brain capillaries (relative to serum), read-out: brain capillaries, brain/serum ratio): 0.01
Kp at 10 min ([1]; brain parenchyma (relative to serum), read-out: brain parenchyma, brain/serum ratio): 0.347
Papp A→B at 120 min, 1 μg/mL ([2]; DS1: 1 μg/mL pellitorine (in Anacyclus pyrethrum extract) in 0.5% EtOH in HBSS, nonsink equation, mean ± SD, n = 2, read-out: apparent permeability coefficient (P app), apical-to-basolateral transport): 48.08 ± 0.08 ×10⁻⁶ cm/s
Papp B→A at 120 min, 1 μg/mL ([2]; DS1, mean ± SD, n = 2, read-out: apparent permeability coefficient (P app), basolateral-to-apical transport): 57.5 ± 6.2 ×10⁻⁶ cm/s
Papp A→B at 120 min, 56 μg/mL ([2]; DS2: 56 μg/mL pellitorine (in Anacyclus pyrethrum extract) in 0.5% vitamin E-TPGS/EtOH/PEG 400/PG mixture in HBSS, sink equation, mean ± SD, n = 2, read-out: apparent permeability coefficient (P app), apical-to-basolateral transport): 5.5 ± 0.06 ×10⁻⁶ cm/s
Papp B→A at 120 min, 56 μg/mL ([2]; DS2, mean ± SD, n = 2, read-out: apparent permeability coefficient (P app), basolateral-to-apical transport): 2.8 ± 0.09 ×10⁻⁶ cm/s
recovery at 120 min ([2]; after 120 min, read-out: mass balance, total recovery): 104 to 132%
uptake ratio (P app,ab/P app,ba) (Caco-2 cell monolayer; DS1): 0.84
uptake ratio (P app,ab/P app,ba) (Caco-2 cell monolayer; DS2): 1.96
amount of pellitorine permeated (Caco-2 cell monolayer; [4]): 0.31 µg
percentage of applied pellitorine permeated (Caco-2 cell monolayer; [4]): 56.7%
amount of pellitorine permeated (Caco-2 cell monolayer; [5]): 2.24 µg
percentage of applied pellitorine permeated (Caco-2 cell monolayer; [5]): 9.98%
amount of pellitorine permeated (Caco-2 cell monolayer; [6]): 0.39 µg
percentage of applied pellitorine permeated (Caco-2 cell monolayer; [6]): 23.7%
amount of pellitorine permeated (Caco-2 cell monolayer; [7]): 1.24 µg
percentage of applied pellitorine permeated (Caco-2 cell monolayer; [7]): 1.84%
ratio of P app values between the apical-to-basolateral and the basolateral-to-apical direction or vice versa (Caco-2 cell monolayer; both dose solutions): ≤ 2
aqueous permeability coefficient K p,aq ([3]; pellitorine from crude plant extract): 2.3 10^−4 cm/h
aqueous permeability coefficient K p,aq ([3]; purified pellitorine): 1.1 10^−4 cm/h
